Tested on: pre-menopausal women
Test: uterine bleeding pattern, clinical trial of compound (VI) 200 mg per day (choline salt) with add-back therapy (1.0 mg E2, 0.5 mg norethindrone acetate)
Format: in vivo, human
Experimental: The experiments described in this example were conducted as part of a single-center, open-label, randomized, parallel-group clinical trial in 32 pre-menopausal women. Following screening assessments, and during the second half of the menstrual cycle, women received norethindrone (5 mg, three-times daily for 10 days) to synchronize menstrual cycles. After menstrual cycle synchronization, subjects were randomized with a 1:1 ratio to one of two treatment arms: (i) a cohort receiving once-daily administration of compound (VI) (200 mg per day, administered in the form of a choline salt) with concurrent onset of add-back therapy administration for 10 weeks (“Concurrent-ABT”), or (ii) a cohort receiving pre-treatment with compound (VI) (200 mg per day, administered in the form of a choline salt) for 4 weeks followed by combined daily administration of compound (VI) and add-back therapy (“Delayed-ABT”). The add-back therapy used in these experiments contained 1.0 mg of E2 and 0.5 mg of norethindrone acetate, and was administered to subjects once daily.
The main treatment outcomes and endpoints measured during these experiments included (i) a qualitative assessment of uterine blood loss, which was recorded on a daily basis throughout the study by characterizing each subject's bleeding pattern using one of the following four categories: “no bleeding,” “spotting” (light staining, dark blood, no sanitary protection needed or only panty liner), “bleeding” (1-4 completely soiled maxi sanitary towels or 1-8 soiled tampons or equivalent combination of the two), or “heavy bleeding” (>4 completely soiled maxi sanitary towels or >8 soiled tampons or equivalent combination of the two); (ii) a bi-weekly assessment of each subject's circulating E2 concentration; (iii) a bi-weekly assessment of each subject's circulating progesterone concentration (measured using a validated commercial chemiluminescence immunoassay method (Elecsys Progesterone III, Roche, Burgess Hill, UK)); (iv) the pharmacokinetic profile of compound (VI) and the add-back therapy; and (v) adverse events.

[1] = Days 29-42, treatment A (Concurrent-ABT), N=14
[2] = Days 29-42, treatment B (Delayed-ABT), N=15
[3] = Days 43-56, Overall (A+B), N=29
[4] = Days 43-56, treatment A (Concurrent-ABT), N=14
[5] = Days 43-56, treatment B (Delayed-ABT), N=15
[6] = Days 57-70, Overall (A+B), N=29
[7] = Days 57-70, treatment A (Concurrent-ABT), N=14
[8] = Days 57-70, treatment B (Delayed-ABT), N=15
[9] = Delayed-ABT cohort, after add-back therapy was initiated in week 5

COc1cc(F)c(-n2c(=O)[nH]c3csc(C(=O)O)c3c2=O)cc1OCc1c(OC)ccc(F)c1F [Compound (VI), 3-[2-fluoro-5-(2,3-difluoro-6-methoxybenzyloxy)4-methoxyphenyl]-2,4-dioxo-1,2,3,4-tetrahydrothieno [3,4d]pyrimidine-5-carboxylic acid]
No Bleeding or Spotting, subjects (n), Plasma Estradiol Level 20-50 pg/mL [1]: 9 | No Bleeding or Spotting, subjects (n), Plasma Estradiol Level <20 pg/mL [1]: 1 | No Bleeding or Spotting, subjects (n), Plasma Estradiol Level >50 pg/mL [1]: 3 | No Bleeding, subjects (%), Plasma Estradiol Level 20-50 pg/mL [1]: (50.0%) | No Bleeding, subjects (%), Plasma Estradiol Level <20 pg/mL [1]: (7.1%) | No Bleeding, subjects (%), Plasma Estradiol Level >50 pg/mL [1]: (21.4%) | No Bleeding, subjects (n), Plasma Estradiol Level 20-50 pg/mL [1]: 7 | No Bleeding, subjects (n), Plasma Estradiol Level <20 pg/mL [1]: 1 | No Bleeding, subjects (n), Plasma Estradiol Level >50 pg/mL [1]: 3 | No Bleeding or Spotting, subjects (%), Plasma Estradiol Level 20-50 pg/mL [2]: (46.7%) | No Bleeding or Spotting, subjects (%), Plasma Estradiol Level <20 pg/mL [2]: (20.0%) | No Bleeding or Spotting, subjects (%), Plasma Estradiol Level >50 pg/mL [2]: (20.0%) | No Bleeding or Spotting, subjects (n), Plasma Estradiol Level 20-50 pg/mL [2]: 7 | No Bleeding or Spotting, subjects (n), Plasma Estradiol Level <20 pg/mL [2]: 3 | No Bleeding or Spotting, subjects (n), Plasma Estradiol Level >50 pg/mL [2]: 3 | No Bleeding, subjects (%), Plasma Estradiol Level 20-50 pg/mL [2]: (33.3%) | No Bleeding, subjects (%), Plasma Estradiol Level <20 pg/mL [2]: (20.0%) | No Bleeding, subjects (%), Plasma Estradiol Level >50 pg/mL [2]: (13.3%) | No Bleeding, subjects (n), Plasma Estradiol Level 20-50 pg/mL [2]: 5 | No Bleeding, subjects (n), Plasma Estradiol Level <20 pg/mL [2]: 3 | No Bleeding, subjects (n), Plasma Estradiol Level >50 pg/mL [2]: 2 | No Bleeding or Spotting, subjects (%), Plasma Estradiol Level 20-50 pg/mL [3]: (51.7%) | No Bleeding or Spotting, subjects (%), Plasma Estradiol Level <20 pg/mL [3]: (13.8%) | No Bleeding or Spotting, subjects (%), Plasma Estradiol Level >50 pg/mL [3]: (17.2%) | No Bleeding or Spotting, subjects (n), Plasma Estradiol Level 20-50 pg/mL [3]: 15 | No Bleeding or Spotting, subjects (n), Plasma Estradiol Level <20 pg/mL [3]: 4 | No Bleeding or Spotting, subjects (n), Plasma Estradiol Level >50 pg/mL [3]: 5 | No Bleeding, subjects (%), Plasma Estradiol Level 20-50 pg/mL [3]: (37.9%) | No Bleeding, subjects (%), Plasma Estradiol Level <20 pg/mL [3]: (10.3%) | No Bleeding, subjects (%), Plasma Estradiol Level >50 pg/mL [3]: (13.8%) | No Bleeding, subjects (n), Plasma Estradiol Level 20-50 pg/mL [3]: 11 | No Bleeding, subjects (n), Plasma Estradiol Level <20 pg/mL [3]: 3 | No Bleeding, subjects (n), Plasma Estradiol Level >50 pg/mL [3]: 4 | No Bleeding or Spotting, subjects (%), Plasma Estradiol Level 20-50 pg/mL [4]: (57.1%) | No Bleeding or Spotting, subjects (%), Plasma Estradiol Level <20 pg/mL [4]: (7.1%) | No Bleeding or Spotting, subjects (%), Plasma Estradiol Level >50 pg/mL [4]: (21.4%) | No Bleeding or Spotting, subjects (n), Plasma Estradiol Level 20-50 pg/mL [4]: 8 | No Bleeding or Spotting, subjects (n), Plasma Estradiol Level <20 pg/mL [4]: 1 | No Bleeding or Spotting, subjects (n), Plasma Estradiol Level >50 pg/mL [4]: 3 | No Bleeding, subjects (%), Plasma Estradiol Level 20-50 pg/mL [4]: (50.0%) | No Bleeding, subjects (%), Plasma Estradiol Level <20 pg/mL [4]: (7.1%) | No Bleeding, subjects (%), Plasma Estradiol Level >50 pg/mL [4]: (21.4%) | No Bleeding, subjects (n), Plasma Estradiol Level 20-50 pg/mL [4]: 7 | No Bleeding, subjects (n), Plasma Estradiol Level <20 pg/mL [4]: 1 | No Bleeding, subjects (n), Plasma Estradiol Level >50 pg/mL [4]: 3 | No Bleeding or Spotting, subjects (%), Plasma Estradiol Level 20-50 pg/mL [5]: (46.7%) | No Bleeding or Spotting, subjects (%), Plasma Estradiol Level <20 pg/mL [5]: (20.0%) | No Bleeding or Spotting, subjects (%), Plasma Estradiol Level >50 pg/mL [5]: (13.3%) | No Bleeding or Spotting, subjects (n), Plasma Estradiol Level 20-50 pg/mL [5]: 7 | No Bleeding or Spotting, subjects (n), Plasma Estradiol Level <20 pg/mL [5]: 7 | No Bleeding or Spotting, subjects (n), Plasma Estradiol Level >50 pg/mL [5]: 2 | No Bleeding, subjects (%), Plasma Estradiol Level 20-50 pg/mL [5]: (26.7%) | No Bleeding, subjects (%), Plasma Estradiol Level <20 pg/mL [5]: (13.3%) | No Bleeding, subjects (%), Plasma Estradiol Level >50 pg/mL [5]: (6.7%) | No Bleeding, subjects (n), Plasma Estradiol Level 20-50 pg/mL [5]: 4 | No Bleeding, subjects (n), Plasma Estradiol Level <20 pg/mL [5]: 2 | No Bleeding, subjects (n), Plasma Estradiol Level >50 pg/mL [5]: 1 | No Bleeding or Spotting, subjects (%), Plasma Estradiol Level 20-50 pg/mL [6]: (48.3%) | No Bleeding or Spotting, subjects (%), Plasma Estradiol Level <20 pg/mL [6]: (20.7%) | No Bleeding or Spotting, subjects (%), Plasma Estradiol Level >50 pg/mL [6]: (13.8%) | No Bleeding or Spotting, subjects (n), Plasma Estradiol Level 20-50 pg/mL [6]: 14 | No Bleeding or Spotting, subjects (n), Plasma Estradiol Level <20 pg/mL [6]: 6 | No Bleeding or Spotting, subjects (n), Plasma Estradiol Level >50 pg/mL [6]: 4 | No Bleeding, subjects (%), Plasma Estradiol Level 20-50 pg/mL [6]: (41.4%) | No Bleeding, subjects (%), Plasma Estradiol Level <20 pg/mL [6]: (20.7%) | No Bleeding, subjects (%), Plasma Estradiol Level >50 pg/mL [6]: (10.3%) | No Bleeding, subjects (n), Plasma Estradiol Level 20-50 pg/mL [6]: 12 | No Bleeding, subjects (n), Plasma Estradiol Level <20 pg/mL [6]: 6 | No Bleeding, subjects (n), Plasma Estradiol Level >50 pg/mL [6]: 3 | No Bleeding or Spotting, subjects (%), Plasma Estradiol Level 20-50 pg/mL [7]: (50.0%) | No Bleeding or Spotting, subjects (%), Plasma Estradiol Level <20 pg/mL [7]: (21.4%) | No Bleeding or Spotting, subjects (%), Plasma Estradiol Level >50 pg/mL [7]: (21.4%) | No Bleeding or Spotting, subjects (n), Plasma Estradiol Level 20-50 pg/mL [7]: 7 | No Bleeding or Spotting, subjects (n), Plasma Estradiol Level <20 pg/mL [7]: 3 | No Bleeding or Spotting, subjects (n), Plasma Estradiol Level >50 pg/mL [7]: 3 | No Bleeding, subjects (%), Plasma Estradiol Level 20-50 pg/mL [7]: (42.9%) | No Bleeding, subjects (%), Plasma Estradiol Level <20 pg/mL [7]: (21.4%) | No Bleeding, subjects (%), Plasma Estradiol Level >50 pg/mL [7]: (21.4%) | No Bleeding, subjects (n), Plasma Estradiol Level 20-50 pg/mL [7]: 6 | No Bleeding, subjects (n), Plasma Estradiol Level <20 pg/mL [7]: 3 | No Bleeding, subjects (n), Plasma Estradiol Level >50 pg/mL [7]: 3 | No Bleeding or Spotting, subjects (%), Plasma Estradiol Level 20-50 pg/mL [8]: (46.7%) | No Bleeding or Spotting, subjects (%), Plasma Estradiol Level <20 pg/mL [8]: (20.0%) | No Bleeding or Spotting, subjects (%), Plasma Estradiol Level >50 pg/mL [8]: (6.7%) | No Bleeding or Spotting, subjects (n), Plasma Estradiol Level 20-50 pg/mL [8]: 7 | No Bleeding or Spotting, subjects (n), Plasma Estradiol Level <20 pg/mL [8]: 3 | No Bleeding or Spotting, subjects (n), Plasma Estradiol Level >50 pg/mL [8]: 1 | No Bleeding, subjects (%), Plasma Estradiol Level 20-50 pg/mL [8]: (40.0%) | No Bleeding, subjects (%), Plasma Estradiol Level <20 pg/mL [8]: (20.0%) | No Bleeding, subjects (%), Plasma Estradiol Level >50 pg/mL [8]: (0.0%) | No Bleeding, subjects (n), Plasma Estradiol Level 20-50 pg/mL [8]: 6 | No Bleeding, subjects (n), Plasma Estradiol Level <20 pg/mL [8]: 3 | No Bleeding, subjects (n), Plasma Estradiol Level >50 pg/mL [8]: 0 | uterine bleeding / amenorrhea (Delayed-ABT cohort, Compound (VI) alone (first 4 weeks), FIG. 1A): amenorrhea in all subjects by week 5 | bleeding, frequency [9]: ≤ 8% | spotting, frequency [9]: ≤ 11% | women in amenorrhea within 5 days of treatment (Delayed-ABT group): ~20% | women in amenorrhea (Delayed-ABT group, last 4 weeks of treatment, p=0.03): 40% | Uterine Bleeding Pattern: amenorrhea (Delayed-ABT, Weeks 2-4, achieved in week 5): almost 100% amenorrhea (achieved in week 5) | Uterine Bleeding Pattern: onset of spotting and bleeding (Delayed-ABT, Weeks 6-10): Spotting and bleeding began after 1 week of add-
